From US6194465A, “Benzamide therapeutics for the treatment of inflammatory bowel disease” (priority 1999, dated 2001)
“Also recorded” adds a separate entry of the source.

Legend:
[1] = system: TNBS-induced colonic inflammation; test: TNBS model, Compound N and comparison with 5-ASA; type: in vivo, rats
Experimental: Male Sprague-Dawley rats (200-250 g) were housed in standard cages (2 per cage) and fed rat chow and tap water ad libitum. After an overnight fast, rats were brought into the laboratory and randomized into treatment groups. Colitis was induced by intrarectal administration of 0.5 ml of TNBS solution (50 mg/kg in 50% ethanol) using a 1 ml syringe attached to a 5 cm polyethylene catheter. Control animals received saline (0.9%) or a 1 % methyl cellulose suspension at identical time points.
Three days after TNBS administration, the rats were sacrificed and the colons excised and opened longitudinally.
Compound N was subjected to a series of TNBS activity tests as just described.
Groups of rats (11 rats/group) were administered Compound N (10 mg/kg po), 5-ASA (10 mg/kg po), 5-ASA (300 mg/kg po), or the methylcellulose vehicle 1 hour prior to the TNBS enema. After 3 days the rats were sacrificed and the colonic damage morphologically evaluated.
Groups of rats, were administered increasing doses of Compound N (0-100 mg/kg-po) 1 hour prior to TNBS enema. In these experiments the endpoint was macroscopic assessment.

[2] = PK parameter estimates, 30 mg/kg po (Table 1); type: in vivo, rats; details: Compound N relative to Compound A, rats, 30 mg/kg po; 30 mg/kg
Experimental: The bioavailability of compound N is depicted in FIG. 10 as well. |(NRTs Dosed 30 mg/kg po in 1% Methyl Cellulose, n = 3 rats/NRT)

[3] = system: inflammatory bowel disease; details: cited from earlier work; for side-effects (in words) / effectiveness in small bowel inflammation: IBD patients
[4] = system: TNBS induced model of colitis; details: only if multiple high doses administered intra-rectally; cited from earlier work
[5] = system: inducible nitric oxide synthetase (iNOS); details: cited from earlier work
lethality induced by LPS = details: various rodent models of septic shock; cited from earlier work
[6] = following ischemia; cited from earlier work
[7] = system: senescence accelerated mice; details: cited from earlier work
[8] = system: adjuvant induced arthritis; test: Rat adjuvant induced arthritis model of chronic inflammation; type: in vivo; details: Compound A 100 mg/kg po or dexamethasone 0.1 mg/kg, daily 7 days, vs adjuvant
Experimental: Confirmation of the anti-inflammatory activity of Compound A was sought in another related biological test-the rat adjuvant induced arthritis model of chronic inflammation. This model was selected because almost all of the anti-IBD agents also show efficacy in standard arthritis models. In this model Compound A was tested at 100 mg/kg, po in a 1 % methyl cellulose suspension. On day 0 all animals received an injection of either Mycobacterium butyricum (100μL, 20 mg/mL in mineral oil) or mineral oil in the base of the tail. 14 days after this injection, rat paws were measured and all the rats were randomized into 3 treatment groups of 8. A control adjuvant group (group without further treatment), a group to be treated with dexamethasone (steroid reference) and a group to treated with Compound A. Rats received Compound A 100 mg/kg, po, or dexamethasone 0.1 mg/kg, op, daily until day 21 (7 days dosing). On day 21 rats were sacrificed. Paw measurements were taken after 5 and 7 days treatment.

[9] = 0-100 mg/kg po, 1 hour prior to TNBS

CC(C)(C)NC(=O)c1ccc(N)cc1 [Compound N, N-tert-butyl-4-aminobenzamide]
colonic morphological score, dose-response (in words) [1, 9]: dose=dependent reduction in the colonic morphological score | significance of protection [1, 9]: only significant (p <0.05) at the 10, 30 and 100 mg/kg doses | efficacy, 10 mg/kg po, Compound N ([1]; 10 mg/kg po single dose, 1 hour before TNBS): excellent efficacy | activity relative to Compound A ([1]; TNBS activity tests): better activity than that of Compound A | protection ([1]; TNBS activity tests): 75% | clearance / systemic exposure / variability (in words) [2]: lower clearance; also recorded: overall greater systemic exposure; also recorded: relatively low variability in plasma concentration

Nc1ccc(O)c(C(=O)O)c1 [Compound 5-ASA]
time to full efficacy ([3]; 5-ASA therapy): 6-8 weeks | response in Crohn's disease [3]: poor | response in early ulcerative colitis [3]: fair to mild | response in severe ulcerative colitis [3]: poor | effect on TNBS-induced colonic inflammation, 5-ASA 10 mg/kg ([1]; 10 mg/kg po, 1 hour before TNBS): no effect | effect on TNBS-induced colonic inflammation, 5-ASA 300 mg/kg ([1]; 300 mg/kg po, 1 hour before TNBS): no effect | protection, 5-ASA intra-rectal [4]: 50%

Nc1ccc(S(=O)(=O)Nc2ccccn2)cc1 [sulfapyridine]
side-effects (in words) [3]: significant side-effects such as reversible sperm abnormalities, dyspepsia or allergic reactions to the sulpha component | patients who cannot tolerate ([3]; sulfapyridine component of sulfasalazine): at least 20 % of patients

CC(C)(C)[N+]([O-])=Cc1ccccc1 [PBN, α-phenyl-t-butyl nitrone]
block of iNOS [5]: block inducible nitric oxide synthetase | protection against lethality induced by LPS (lethality induced by LPS): consistent and well documented protection | trapping of reactive oxygen species and/or secondary free radicals [6]: trap reactive oxygen species and/or secondary free radicals | increase of life span [7]: one third

O=C(O)c1cc(/N=N/c2ccc(O)c(C(=O)O)c2)ccc1O [olsalazine]
effectiveness in small bowel inflammation [3]: Neither sulfasalazine nor olsalazine are effective | side-effects (in words) [3]: side effects are reduced

C[C@@H]1C[C@H]2[C@@H]3CCC4=CC(=O)C=C[C@]4(C)[C@@]3(F)[C@@H](O)C[C@]2(C)[C@@]1(O)C(=O)CO [dexamethasone, reference compound]
inhibition of the inflammatory response [8]: significant inhibition of the inflammatory response (p<0.005)

O=C(O)c1cc(/N=N/c2ccc(S(=O)(=O)Nc3ccccn3)cc2)ccc1O [sulfasalazine]
response in Crohn's disease [3]: poor | effectiveness in small bowel inflammation [3]: Neither sulfasalazine nor olsalazine are effective | response in early ulcerative colitis [3]: fair to mild | response in severe ulcerative colitis [3]: poor
